The results in this text go back to patent EP4603105A1, “PHARMACEUTICAL COMPOSITION CONTAINING CYCLIC COMPOUND HAVING SELECTIVE KRAS INHIBITORY EFFECT AGAINST HRAS AND NRAS” (CHUGAI SEIYAKU KABUSHIKI KAISHA, priority 2022, dated 2024).

SMILES strings stand for the structures. Where a SMILES comes first, the peptide text is derived from it. Bridges are numbered along the chain shown (N, C = ends). [ ]: non-standard residue; d: D form. The star is where a group is joined. hPhe(3-Cl-4-CF3) = N[C@@H](CCc1ccc(C(F)(F)F)c(Cl)c1)C(=O)O; NPrPhe(4-CF3) = CCCN[C@@H](Cc1ccc(C(F)(F)F)cc1)C(=O)O; NMeGly(cPent) = CN[C@H](C(=O)O)C1CCCC1; Pro(4,4-F2) = O=C(O)[C@@H]1CC(F)(F)CN1; Hyp = O=C(O)[C@@H]1C[C@@H](O)CN1; NMeL = CN[C@@H](CC(C)C)C(=O)O; Morpholide = C1CN(*)CCO1; Ac5c = NC1(C(=O)O)CCCC1; Ac4c = NC1(C(=O)O)CCC1; NEtG = CCNCC(=O)O; Sar = CNCC(=O)O

Assay [1] concerns the target GDP-bound NRAS wild-type protein (Homo sapiens, UniProt P01111). Nature of the assay: Binding to NRAS by surface plasmon resonance (SPR), KD and KD ratio to KRAS. Conditions: ratio of KD for GDP-bound NRAS wild-type protein to KD for KRAS. Put shortly: (§1)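 Each cycle, GDP-bound biotin-Avi RAS was captured (~100–300 RU), compound concentrations were injected low to high for 75 s each at 100 µL/min, then the chip was regenerated. Buffer: HBS pH 7.4, 10 mM MgCl2, 10 µM GDP, 1 mM DTT, 4% DMSO; 30°C. KD from a 1:1 binding model.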
On the technique in general: In SPR one partner is held on a chip, and binding of the other changes the refractive index at the surface.

A further assay has as its target HRAS wild-type protein (Homo sapiens, UniProt P01112). Nature of the assay: Binding to HRAS by surface plasmon resonance (SPR), KD and KD ratio to KRAS. Conditions: ratio of KD for HRAS wild-type protein to KD for KRAS. In short, it runs like this: as §1
Assay [2] relates to human lung cancer strain NCI-H441. The assay is classed as cell-based. Put shortly: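 Signal came from […] measured per well once the reagent was added. Beforehand, cells were cultured at 37°C and 5% carbon dioxide on a compound series serially diluted in dimethyl sulfoxide.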

One may read the IC50 as the concentration that inhibits the measured activity by half. Low readings indicate greater potency in that assay, high ones weaker potency in that assay.

Chain of GDP-bound NRAS wild-type protein (P01111 whole entry): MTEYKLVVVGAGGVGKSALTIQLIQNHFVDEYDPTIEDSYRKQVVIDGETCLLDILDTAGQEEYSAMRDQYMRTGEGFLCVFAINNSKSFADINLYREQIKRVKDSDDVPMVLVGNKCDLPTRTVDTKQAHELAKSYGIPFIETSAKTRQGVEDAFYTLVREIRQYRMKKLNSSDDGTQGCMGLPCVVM
Chain of HRAS wild-type protein (P01112 whole entry): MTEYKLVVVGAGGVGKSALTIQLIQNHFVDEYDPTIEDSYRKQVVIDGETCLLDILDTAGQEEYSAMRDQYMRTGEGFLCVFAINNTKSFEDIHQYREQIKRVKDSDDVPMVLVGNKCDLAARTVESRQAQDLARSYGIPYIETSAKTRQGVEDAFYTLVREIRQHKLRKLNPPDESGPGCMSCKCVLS

Take `CCCN1C(=O)CN(C)C(=O)CNC(=O)[C@H]([C@@H](C)CC)NC(=O)[C@H](CC(C)C)N(C)C(=O)C[C@@H](C(=O)N2CCOCC2)NC(=O)[C@H](C2CCCC2)N(C)C(=O)C2(CCCC2)NC(=O)[C@@H]2CC(F)(F)CN2C(=O)[C@H](CCc2ccc(C(F)(F)F)c(Cl)c2)NC(=O)CN(C)C(=O)[C@@H]1Cc1ccc(C(F)(F)F)cc1` [PP0327] ([NMeL]IG[Sar][NPrPhe(4-CF3)][Sar][hPhe(3-Cl-4-CF3)][Pro(4,4-F2)][Ac5c][NMeGly(cPent)]D-Morpholide; lactam N-11): the “NRAS /KRAS” value in assay [1] was “B (a compound having 3 or more and less than 10 is denoted as B)”. Moreover, the “HRAS /KRAS” value at HRAS wild-type protein was “B (a compound having 3 or more and less than 10 is denoted as B)”. For the same molecule, half-maximal inhibition in assay [2] (IC50) required 162 nM.

Turning to `CCCN1C(=O)CN(C)C(=O)CNC(=O)[C@H]([C@@H](C)CC)NC(=O)[C@H](CC(C)C)N(C)C(=O)C[C@@H](C(=O)N2CCOCC2)NC(=O)[C@H](C2CCCC2)N(C)C(=O)C2(CCC2)NC(=O)[C@@H]2CC(F)(F)CN2C(=O)[C@H](CCc2ccc(C(F)(F)F)c(Cl)c2)NC(=O)CN(C)C(=O)[C@@H]1Cc1ccc(C(F)(F)F)cc1` [PP0328] ([NMeL]IG[Sar][NPrPhe(4-CF3)][Sar][hPhe(3-Cl-4-CF3)][Pro(4,4-F2)][Ac4c][NMeGly(cPent)]D-Morpholide; lactam N-11), the “NRAS /KRAS” value in assay [1] is “B (a compound having 3 or more and less than 10 is denoted as B)”. Besides, on HRAS wild-type protein, the “HRAS /KRAS” value was “B (a compound having 3 or more and less than 10 is denoted as B)”. In assay [2], this molecule displayed an IC50 of 243 nM.

For the molecule `CCCN1C(=O)CN(C)C(=O)CNC(=O)[C@H]([C@@H](C)CC)NC(=O)[C@H](CC(C)C)N(C)C(=O)C[C@@H](C(=O)N2CCOCC2)NC(=O)[C@H](C2CCCC2)N(C)C(=O)C2(CCCC2)NC(=O)[C@@H]2C[C@@H](OCC)CN2C(=O)[C@H](CCc2ccc(C(F)(F)F)c(Cl)c2)NC(=O)CN(C)C(=O)[C@@H]1Cc1ccc(C(F)(F)F)cc1` [PP0329] ([NMeL]IG[Sar][NPrPhe(4-CF3)][Sar][hPhe(3-Cl-4-CF3)][Hyp](Et)[Ac5c][NMeGly(cPent)]D-Morpholide; lactam N-11), in assay [1], the “NRAS /KRAS” value was “B (a compound having 3 or more and less than 10 is denoted as B)”. Further, the “HRAS /KRAS” value at HRAS wild-type protein was “C (A compound having a KD ratio of 0.1 or more and less than 3 is denoted as C)”. In assay [2], this molecule gave an IC50 of 65.8 nM.

For `CCCN1C(=O)CN(C)C(=O)CNC(=O)[C@H]([C@@H](C)CC)NC(=O)[C@H](CC(C)C)N(C)C(=O)C[C@@H](C(=O)N2CCOCC2)NC(=O)[C@H](C2CCCC2)N(C)C(=O)C2(CCC2)NC(=O)[C@@H]2C[C@@H](OCC)CN2C(=O)[C@H](CCc2ccc(C(F)(F)F)c(Cl)c2)NC(=O)CN(C)C(=O)[C@@H]1Cc1ccc(C(F)(F)F)cc1` [PP0330] ([NMeL]IG[Sar][NPrPhe(4-CF3)][Sar][hPhe(3-Cl-4-CF3)][Hyp](Et)[Ac4c][NMeGly(cPent)]D-Morpholide; lactam N-11), the “NRAS /KRAS” value in assay [1] was “B (a compound having 3 or more and less than 10 is denoted as B)”. Besides, the “HRAS /KRAS” value on HRAS wild-type protein was “C (A compound having a KD ratio of 0.1 or more and less than 3 is denoted as C)”. This molecule returned an IC50 in assay [2] of 98.2 nM.

Regarding `CCCN1C(=O)CN(C)C(=O)CN(CC)C(=O)[C@H]([C@@H](C)CC)NC(=O)[C@H](CC(C)C)N(C)C(=O)C[C@@H](C(=O)N2CCOCC2)NC(=O)[C@H](C2CCCC2)N(C)C(=O)C2(CCCC2)NC(=O)[C@@H]2CCCN2C(=O)[C@H](CCc2ccc(C(F)(F)F)c(Cl)c2)NC(=O)CN(C)C(=O)[C@@H]1Cc1ccc(C(F)(F)F)cc1` [PP0331] ([NMeL]I[NEtG][Sar][NPrPhe(4-CF3)][Sar][hPhe(3-Cl-4-CF3)]P[Ac5c][NMeGly(cPent)]D-Morpholide; lactam N-11), the “NRAS /KRAS” value in assay [1] was “B (a compound having 3 or more and less than 10 is denoted as B)”. In addition, the “HRAS /KRAS” value on HRAS wild-type protein is “B (a compound having 3 or more and less than 10 is denoted as B)”. The molecule also registered an IC50 in assay [2] of 84.7 nM.
